# From patent publication US12077503B2, “Substituted cyclic amides and their use as herbicides” (FMC CORPORATION, priority 2015, dated 2024)
# Like-named read-outs stand apart in the source and are kept apart here.
# Columns and labels:
# Format in all cases: in vivo
# [1] = system: rice (Oryra sativa); test: Test B flooded paddy test; details: Oryza sativa, Flood, 250 g ai/ha, read-out: Rice plant response rating
# In short: (§1)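 Compound goes directly into floodwater once pots are flooded 3 cm above soil, targeting plants at two leaves; the water depth is then held for the test duration. Plants sit 13–15 d in a greenhouse and are rated visually, 100 denoting complete control.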
# [2] = system: ducksalad (Heteranthera limosa); test: Test B flooded paddy test; details: Heteranthera limosa, Flood, 250 g ai/ha, read-out: Ducksalad plant response rating
# In short: as §1
# [3] = system: sedge, umbrella (small-flower umbrella sedge, Cyperus difformis); test: Test B flooded paddy test; details: Cyperus difformis, Flood, 250 g ai/ha, read-out: Sedge, Umbrella plant response rating
# In short: as §1
# [4] = system: barnyardgrass (Echinochloa crus-galli); test: Test B flooded paddy test; details: Echinochloa crus-galli, Flood, 250 g ai/ha, read-out: Barnyardgrass plant response rating
# In short: as §1
# [5] = system: barnyardgrass (Echinochloa crus-galli); test: Test A preemergence; details: Echinochloa crus-galli, pre-emergence, 240 h; for pest or weed control at 125 g/ha: 125 g ai/ha; for pest or weed control at 500 g/ha: 500 g ai/ha
# In short: (§2)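 Ratings of 0 (no effect) to 100 (complete control) come from visual comparison with untreated controls roughly 10 d after treatment. Test chemicals, formulated in a non-phytotoxic solvent mixture with surfactant, were applied either as a preemergence directed soil spray on seeded soil or postemergence to one- to two-leaf plants 2 to 10 cm tall.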
# [6] = system: Kochia (Kochia scoparia); test: Test A postemergence; details: Bassia scoparia, post-emergence, 240 h; for pest or weed control at 125 g/ha: 125 g ai/ha
# In short: as §2
# [7] = system: ryegrass, Italian (Italian ryegrass, Lolium multiflorum); test: Test A postemergence; details: Lolium multiflorum, post-emergence, 240 h; for pest or weed control at 125 g/ha: 125 g ai/ha
# In short: as §2
# [8] = system: blackgrass (Alopecurus myosuroides); test: Test A postemergence; details: Alopecurus myosuroides, post-emergence, 240 h; for pest or weed control at 125 g/ha: 125 g ai/ha
# In short: as §2
# [9] = system: ragweed (common ragweed, Ambrosia elatior); test: Test A postemergence; details: Ambrosia artemisiifolia, post-emergence, 240 h; for pest or weed control at 125 g/ha: 125 g ai/ha
# In short: as §2
# [10] = system: Galium (catchweed bedstraw, Galium aparine); test: Test A postemergence; details: Galium, post-emergence, 240 h; for pest or weed control at 125 g/ha: 125 g ai/ha
# In short: as §2
# [11] = system: barnyardgrass (Echinochloa crus-galli); test: Test A postemergence; details: Echinochloa crus-galli, post-emergence, 240 h; for pest or weed control at 125 g/ha: 125 g ai/ha
# In short: as §2
# [12] = system: wheat (Triticum aestivum); test: Test A postemergence; details: Triticum aestivum, post-emergence, 240 h; for plant injury at 125 g/ha: 125 g ai/ha
# In short: as §2
# [13] = system: pigweed (Amaranthus retroflexus); test: Test A postemergence; details: Amaranthus retroflexus, post-emergence, 240 h; for pest or weed control at 125 g/ha: 125 g ai/ha
# In short: as §2
# [14] = system: giant foxtail (Setaria faberii); test: Test A postemergence; details: Setaria faberi, post-emergence, 240 h; for pest or weed control at 125 g/ha: 125 g ai/ha
# In short: as §2
# [15] = system: corn (Zea mays); test: Test A postemergence; details: Zea mays, post-emergence, 240 h; for plant injury at 125 g/ha: visual injury rating after approximately 10 d, read-out: Corn plant response rating (0 to 100 scale, 0 no effect, 100 complete control)
# In short: as §2
# [16] = scale of 0 to 100 where 0 is no effect and 100 is complete control
# [17] = preemergence, 0 to 100 scale where 0 is no effect and 100 is complete control, read-out: Barnyardgrass plant response rating
# [18] = Preemergence, visual injury vs untreated controls after approximately 10 d, read-out: Barnyardgrass plant response rating (0 to 100 scale where 0 is no effect and 100 is complete control)
# [19] = postemergence, visual injury rating after approximately 10 d, read-out: Kochia plant response rating (0 to 100 scale, 0 no effect, 100 complete control)
# [20] = postemergence, visual injury rating after approximately 10 d, read-out: Ryegrass, Italian plant response rating (0 to 100 scale, 0 no effect, 100 complete control)
# [21] = postemergence, visual injury rating after approximately 10 d, read-out: Blackgrass plant response rating (0 to 100 scale, 0 no effect, 100 complete control)
# [22] = postemergence, visual injury rating after approximately 10 d, read-out: Ragweed plant response rating (0 to 100 scale, 0 no effect, 100 complete control)
# [23] = postemergence, visual injury rating after approximately 10 d, read-out: Galium plant response rating (0 to 100 scale, 0 no effect, 100 complete control)
# [24] = postemergence, visual injury rating after approximately 10 d, read-out: Barnyardgrass plant response rating (0 to 100 scale, 0 no effect, 100 complete control)
# [25] = postemergence, visual injury rating after approximately 10 d, read-out: Wheat plant response rating (0 to 100 scale, 0 no effect, 100 complete control)
# [26] = postemergence, visual injury rating after approximately 10 d, read-out: Pigweed plant response rating (0 to 100 scale, 0 no effect, 100 complete control)
# [27] = postemergence, visual injury rating after approximately 10 d, read-out: Foxtail, Giant plant response rating (0 to 100 scale, 0 no effect, 100 complete control)
# [28] = 0 to 100 scale where 0 is no effect and 100 is complete control
smiles,measurement,setting,value
COc1ccccc1NC(=O)[C@H]1C(=O)N(C)C[C@@H]1c1ccc(C(F)(F)F)cc1 [Compound 843],pest or weed control at 250 g/ha,[1]; [16],0%
same,pest or weed control at 250 g/ha,[2]; [16],20%
same,pest or weed control at 250 g/ha,[3]; [16],0%
same,pest or weed control at 250 g/ha,[4]; [16],0%
same,pest or weed control at 125 g/ha,[5]; [17],60%
same,pest or weed control at 500 g/ha,[5]; [18],80%
same,pest or weed control at 125 g/ha,[6]; [19],40%
same,pest or weed control at 125 g/ha,[7]; [20],0%
same,pest or weed control at 125 g/ha,[8]; [21],0%
same,pest or weed control at 125 g/ha,[9]; [22],0%
same,pest or weed control at 125 g/ha,[10]; [23],30%
same,pest or weed control at 125 g/ha,[11]; [24],40%
same,plant injury at 125 g/ha,[12]; [25],0%
same,pest or weed control at 125 g/ha,[13]; [26],20%
same,pest or weed control at 125 g/ha,[14]; [27],70%
same,plant injury at 125 g/ha,"[15]; 125 g ai/ha, postemergence",0%
O=C1NC[C@H](c2ccc3c(c2)OCO3)[C@H]1C(=O)Nc1ccc(F)cc1F [Compound 1026],pest or weed control at 250 g/ha,[1]; [28],20%
same,pest or weed control at 250 g/ha,[2]; [28],100%
same,pest or weed control at 250 g/ha,[3]; [28],0%
same,pest or weed control at 250 g/ha,[4]; [28],0%
same,pest or weed control at 125 g/ha,"[5]; Preemergence, visual injury rating after approximately 10 d, read-out: Barnyardgrass plant response rating (0 to 100 scale, 0 is no effect, 100 is complete control)",90%
same,pest or weed control at 500 g/ha,"[5]; preemergence, visual injury rating about 10 d after treatment, 0 to 100 scale (0 no effect, 100 complete control), read-out: Barnyardgrass plant response rating",90%
same,pest or weed control at 125 g/ha,"[6]; Postemergence, visual injury after approximately 10 d, 0 to 100 scale where 0 is no effect and 100 is complete control, read-out: Plant response rating, Kochia",0%
same,pest or weed control at 500 g/ha,"[6]; 500 g ai/ha, postemergence, visual injury, 0 to 100 scale (0 no effect, 100 complete control), approx. 10 d, read-out: Plant response rating, Kochia",0%
same,pest or weed control at 125 g/ha,"[7]; Postemergence, visual injury after approximately 10 d, 0 to 100 scale where 0 is no effect and 100 is complete control, read-out: Plant response rating, Ryegrass, Italian",0%
same,pest or weed control at 500 g/ha,"[7]; 500 g ai/ha, postemergence, visual injury, 0 to 100 scale (0 no effect, 100 complete control), approx. 10 d, read-out: Plant response rating, Ryegrass, Italian",0%
same,pest or weed control at 125 g/ha,"[8]; Postemergence, visual injury after approximately 10 d, 0 to 100 scale where 0 is no effect and 100 is complete control, read-out: Plant response rating, Blackgrass",0%
same,pest or weed control at 500 g/ha,"[8]; 500 g ai/ha, postemergence, visual injury, 0 to 100 scale (0 no effect, 100 complete control), approx. 10 d, read-out: Plant response rating, Blackgrass",0%
same,pest or weed control at 125 g/ha,"[9]; Postemergence, visual injury after approximately 10 d, 0 to 100 scale where 0 is no effect and 100 is complete control, read-out: Plant response rating, Ragweed",0%
same,pest or weed control at 500 g/ha,"[9]; 500 g ai/ha, postemergence, visual injury, 0 to 100 scale (0 no effect, 100 complete control), approx. 10 d, read-out: Plant response rating, Ragweed",0%
same,pest or weed control at 125 g/ha,"[10]; Postemergence, visual injury after approximately 10 d, 0 to 100 scale where 0 is no effect and 100 is complete control, read-out: Plant response rating, Galium",0%
same,pest or weed control at 500 g/ha,"[10]; 500 g ai/ha, postemergence, visual injury, 0 to 100 scale (0 no effect, 100 complete control), approx. 10 d, read-out: Plant response rating, Galium",50%
same,pest or weed control at 125 g/ha,"[11]; Postemergence, visual injury after approximately 10 d, 0 to 100 scale where 0 is no effect and 100 is complete control, read-out: Plant response rating, Barnyardgrass",70%
same,pest or weed control at 500 g/ha,"[11]; 500 g ai/ha, postemergence, visual injury, 0 to 100 scale (0 no effect, 100 complete control), approx. 10 d, read-out: Plant response rating, Barnyardgrass",90%
same,plant injury at 125 g/ha,"[12]; Postemergence, visual injury after approximately 10 d, 0 to 100 scale where 0 is no effect and 100 is complete control, read-out: Plant response rating, Wheat",20%
same,plant injury at 500 g/ha,"[12]; 500 g ai/ha, postemergence, visual injury, 0 to 100 scale (0 no effect, 100 complete control), approx. 10 d, read-out: Plant response rating, Wheat",30%
same,pest or weed control at 125 g/ha,"[13]; Postemergence, visual injury after approximately 10 d, 0 to 100 scale where 0 is no effect and 100 is complete control, read-out: Plant response rating, Pigweed",0%
same,pest or weed control at 500 g/ha,"[13]; 500 g ai/ha, postemergence, visual injury, 0 to 100 scale (0 no effect, 100 complete control), approx. 10 d, read-out: Plant response rating, Pigweed",0%
same,pest or weed control at 125 g/ha,"[14]; Postemergence, visual injury after approximately 10 d, 0 to 100 scale where 0 is no effect and 100 is complete control, read-out: Plant response rating, Foxtail, Giant",0%
same,pest or weed control at 500 g/ha,"[14]; 500 g ai/ha, postemergence, visual injury, 0 to 100 scale (0 no effect, 100 complete control), approx. 10 d, read-out: Plant response rating, Foxtail, Giant",20%
same,"Corn plant response rating (crop injury, 0 = no effect, 100 = complete kill) at 125 g/ha","[15]; 125 g ai/ha, Postemergence, visual injury after approximately 10 d, 0 to 100 scale where 0 is no effect and 100 is complete control",0%
same,"Corn plant response rating (crop injury, 0 = no effect, 100 = complete kill) at 500 g/ha","[15]; 500 g ai/ha, postemergence, visual injury, 0 to 100 scale (0 no effect, 100 complete control), approx. 10 d",30%
Cc1c(F)cccc1NC(=O)[C@H]1C(=O)N(C)C[C@@H]1c1cccc(COC(F)F)c1 [Compound 874],pest or weed control at 250 g/ha,[1]; [16],0%
same,pest or weed control at 250 g/ha,[2]; [16],100%
same,pest or weed control at 250 g/ha,[3]; [16],0%
same,pest or weed control at 250 g/ha,[4]; [16],65%
same,pest or weed control at 125 g/ha,[5]; [17],90%
same,pest or weed control at 500 g/ha,[5]; [18],100%
same,pest or weed control at 125 g/ha,[6]; [19],20%
same,pest or weed control at 125 g/ha,[7]; [20],20%
same,pest or weed control at 125 g/ha,[8]; [21],60%
same,pest or weed control at 125 g/ha,[9]; [22],20%
same,pest or weed control at 125 g/ha,[10]; [23],20%
same,pest or weed control at 125 g/ha,[11]; [24],90%
same,plant injury at 125 g/ha,[12]; [25],20%
same,pest or weed control at 125 g/ha,[13]; [26],0%
same,pest or weed control at 125 g/ha,[14]; [27],90%
same,plant injury at 125 g/ha,"[15]; 125 g ai/ha, postemergence",50%
